Data reported in patent US9856288B2, “Tripeptide epoxyketone compound constructed by heterocycle and preparation method and use thereof” (ZHEJIANG UNIVERSITY, priority 2014, dated 2018).
Several values for one entry are separate records, joined by “and”; a condition that tells them apart may be missing. Equal values may be shown once. Read-outs that look alike come from different tables or passages of the source.

Experiments:
[1] = system: LP1; assay: MTT proliferation inhibition, LP1; format: cell-based; conditions: Homo sapiens, LP-1
Procedure: (§1) […] of DMSO was added for dissolution.
(§2) The experimental method may be referred to Test Example 2, except that the cell strains of RPMI8226 and NCI-H929 were replaced with corresponding tumor cells.

[2] = system: MGC-803; assay: MTT proliferation inhibition, MGC-803; format: cell-based; conditions: Homo sapiens
Procedure: as §1, §2

[3] = system: HCT116; assay: MTT proliferation inhibition, HCT116; format: cell-based; conditions: Homo sapiens
Procedure: as §1, §2

[4] = system: PC-3; assay: MTT proliferation inhibition, PC-3; format: cell-based; conditions: Homo sapiens
Procedure: as §1, §2

[5] = system: MCF-7; assay: MTT proliferation inhibition, MCF-7; format: cell-based; conditions: Homo sapiens, MCF7
Procedure: as §1, §2

[6] = MTT cell activity, BORT; format: cell-based
Procedure: (§3) Experimental Method: Cell viability was determined by MTT method preformed as follows. Cells grown at the logarithmic growth phase was digested with a 0.01% trypsin, counted, plated in a 96-cell plate at a cell density of 2.0*10^3/well for 100 ml, and cultured in a 5% CO2 incubator at a temperature of 37° C. overnight. For each of the compounds, a gradient of six concentrations were set, in triplicate for each concentration. […] 20 ml of 5 mg/ml MTT was added to each of the cells. After incubation at a temperature of 37° C. for 3 h, supernatant was removed by suction. 100 ml of DMSO was added for dissolution. Absorption at 550 nm (L1) was determined by using SpectraMAX 340 with a reference wavelength of 690 nm (L2). The values of (L1-L2) were plotted against various concentrations, and fitted into a formula to give IC50.

[7] = system: HELA; assay: MTT cell activity, HELA; format: cell-based; conditions: Homo sapiens
[8] = system: K562; assay: MTT cell activity, K562; format: cell-based; conditions: Homo sapiens
[9] = system: MM-1R; assay: MTT cell activity, MM-1R; format: cell-based; conditions: 100 nM
[10] = system: MM-1S; assay: MTT cell activity, MM-1S; format: cell-based; conditions: Homo sapiens, MM1.S; 100 nM
Procedure: as §3

[11] = system: subcutaneous xenograft of human myeloma RPMI 8226; assay: Growth inhibition of subcutaneous xenograft of human myeloma RPMI 8226 in NOD/SCID mice; format: in vivo; conditions: for Tumor inhibition (%) / Tumor weight (g) mean ± SD: RPMI8226 xenograft NOD/SCID mice; for Tumor weight (g), single animals: individual mice
Procedure: Experimental Method: Human myeloma RPMI8226 cell strain was inoculated subcutaneously at right flank of NOD/SCID mice with an inoculation quantity of 1×10^7 cells/mouse. After forming a xenograft, the experiment was started.
The diameters of subcutaneous xenografts of NOD/SCID mice were measured with a vernier caliper. After the tumor was grown to the size of 100-300 mm^3, the animals were grouped randomly. Equal volume of blank solvent was administered to the group of solvent control. During the experimentation, the diameters of subcutaneous xenografts were measured twice a week, and the mice were weighed at the same time.

[12] = system: RPMI8226 cell; assay: MTT proliferation inhibition, RPMI8226; conditions: Homo sapiens, RPMI-8226, 72 h, read-out: Cytotoxicity IC50 (nM) RPMI8226 cell
Procedure: as §3

[13] = system: NCI-H929 cell; assay: MTT proliferation inhibition, NCI-H929; conditions: Homo sapiens, NCI-H929, 72 h, read-out: Cytotoxicity IC50 (nM) NCI-H929 cell
Procedure: as §3

[14] = target: Human proteasome chymotrypsin-like protease (Homo sapiens, UniProt P28074); assay: Proteasome CT-L inhibition, fluorescent substrate Suc-Leu-Leu-Val-Tyr-AMC; format: biochemical
Description: Experimental Method: By using a fluorescent substrate Suc-Leu-Leu-Val-Tyr-AMC to observe the inhibition of various compounds on activity of the enzyme, the inhibitory effect of the compounds was preliminarily evaluated. Human proteasome chymotrypsin-like protease may hydrolyze the sequence Tyr-AMC of the substrate to release AMC.

[15] = target: proteasome PGPH active site (Homo sapiens, UniProt P28072); assay: Proteasome PGPH inhibition, substrate Z-Leu-Leu-Glu-AMC; format: biochemical
[16] = target: proteasome T-L active site (Homo sapiens, UniProt Q99436); assay: Proteasome T-L inhibition, substrate Bz-Val-Gly-Arg-AMC; format: biochemical
[17] = MTT proliferation inhibition, RPMI8226
Procedure: as §3

[18] = MTT proliferation inhibition, NCI-H929
Procedure: as §3

CC(C)C[C@H](NC(=O)[C@H](CCc1ccccc1)NC(=O)CN1CCOCC1)C(=O)N[C@@H](Cc1ccccc1)C(=O)N[C@@H](CC(C)C)C(=O)[C@@]1(C)CO1 [Carfilzomib, reference compound]
IC50 [1]: 22.7 ± 2.51 nM | IC50 [2]: 8.95 ± 0.12 nM | IC50 ([3]; HCT-116, MTT): 8.93 ± 1.44 µM | IC50 [4]: 24.2 ± 2.72 µM | IC50 [5]: 1.02 ± 0.07 µM | activity at 1 µM [6]: 61.1 ± 2.49% | activity at 10 µM [7]: 61.2 ± 3.44% | activity at 10 µM [8]: 58.6 ± 1.04% | activity at 0.1 µM [9]: 92.2 ± 6.34% | activity at 0.1 µM [10]: 76.2 ± 1.36% | Tumor inhibition (%) ([11]; 4 mg/kg): 58.10% | Tumor weight (g) mean ± SD ([11]; 4 mg/kg): 0.53 ± 0.21 g | Tumor weight (g), single animals ([11]; 4 mg/kg): 0.57 g and 0.38 g and 0.32 g and 0.85 g | IC50 [12]: 3 nM | IC50 [13]: 28.8 nM

CC(C)C[C@H](NC(=O)N1CCC(C(=O)Nc2ccccn2)CC1)C(=O)N[C@@H](Cc1ccccc1)C(=O)N[C@@H](CC(C)C)C(=O)[C@@]1(C)CO1 [Compound 5k, 4-(pyridin-2-yl carbamoyl)piperidin-1-oyl-Leu-Phe-Leu-epoxy ketone]
IC50 [14]: 1.5 nM | IC50 [1]: 15.2 ± 2.82 nM | IC50 [2]: 3.72 ± 0.13 nM | IC50 ([3]; HCT-116, read-out: IC50 HCT116): 0.00572 ± 0.00072 µM | IC50 [4]: 7.74 ± 0.77 µM | IC50 [5]: 0.42 ± 0.04 µM | activity at 1 µM [6]: 54.5 ± 2.13% | activity at 10 µM [7]: 55.8 ± 3.53% | activity at 10 µM [8]: 55.6 ± 1.53% | activity at 0.1 µM [9]: 88.2 ± 7.24% | activity at 0.1 µM [10]: 72.2 ± 3.19% | PGHP (Fold/CT-L) ([15]; ratio of PGHP IC50 to CT-L IC50): 321.0 | IC50 ([15]; read-out: IC50 (nM) PGHP): 485 ± 26.1 nM | IC50 [16]: 3180 ± 47.2 nM | T-L (Fold/CT-L) ([16]; ratio of T-L IC50 to CT-L IC50): (2107.0) | Tumor inhibition (%) ([11]; 4 mg/kg): 53.62% | Tumor weight (g) mean ± SD ([11]; 4 mg/kg): 0.59 ± 0.24 g | Tumor weight (g), single animals ([11]; 4 mg/kg): 0.20 g and 0.66 g and 0.44 g and 0.52 g and 0.72 g and 0.98 g | IC50 [17]: 2.5 nM | IC50 [18]: 15.3 nM

CC(C)C[C@H](NC(=O)[C@H](Cc1ccccc1)NC(=O)c1cnccn1)B(O)O [Bortezomib]
Tumor inhibition (%) ([11]; 1 mg/kg): 34.78% | Tumor weight (g) mean ± SD ([11]; 1 mg/kg): 0.83 ± 0.25 g | Tumor weight (g), single animals ([11]; 1 mg/kg): 1.21 g and 0.38 g and 0.92 g and 0.90 g and 0.74 g and 0.80 g | IC50 [12]: 1.8 nM | IC50 [13]: 9.5 nM

CC(C)C[C@H](NC(=O)N1CCN(C(=O)c2cnccn2)CC1)C(=O)N[C@@H](Cc1ccccc1)C(=O)N[C@@H](CC(C)C)C(=O)[C@@]1(C)CO1 [Compound 5c, 4-(pyrazin-2-oyl)piperazin-1-oyl-Leu-Phe-Leu-epoxy ketone]
IC50 [14]: 90.8 nM | IC50 [17]: 28.9 nM | IC50 [18]: 100 nM

CCN1CC1(C)C(=O)[C@H](CC(C)C)NC(=O)[C@H](Cc1ccccc1)NC(=O)[C@H](CC(C)C)NC(=O)N1CCC(C(=O)Nc2cnccn2)CC1 (stereo partly drawn) [Compound 5w, 4-(pyrazin-2-yl carbamoyl)piperidin-1-oyl-Leu-Phe-Leu-(N-ethyl aziridinone)]
IC50 [17]: > 1000 nM | IC50 [18]: > 1000 nM

CC(C)C[C@H](NC(=O)N1CCC(C(=O)Nc2ccc(F)cc2)CC1)C(=O)N[C@@H](Cc1ccccc1)C(=O)N[C@@H](CC(C)C)C(=O)C1(C)CS1 (stereo partly drawn) [Compound 5u, 4-(4-fluorophenyl carbamoyl)piperidin-1-oyl-Leu-Phe-Leu-cyclothione]
IC50 [17]: > 1000 nM | IC50 [18]: > 1000 nM

CC(C)C[C@H](NC(=O)N1CCC(C(=O)Nc2cnccn2)CC1)C(=O)N[C@@H](Cc1ccccc1)C(=O)N[C@@H](CC(C)C)C(=O)C1(C)CN1 (stereo partly drawn) [Compound 5v, 4-(pyrazin-2-yl carbamoyl)piperidin-1-oyl-Leu-Phe-Leu-aziridinone]
IC50 [17]: > 1000 nM | IC50 [18]: > 1000 nM

CC(C)C[C@H](NC(=O)N1CCC(C(=O)Nc2cnccn2)CC1)C(=O)N[C@@H](Cc1ccccc1)C(=O)N[C@@H](CC(C)C)C(=O)C1(C)CS1 (stereo partly drawn) [Compound 5t, 4-(pyrazin-2-yl carbamoyl)piperidin-1-oyl-Leu-Phe-Leu-cyclothione]
IC50 [17]: > 1000 nM | IC50 [18]: > 1000 nM
